Series [1] is described as follows: Inhibition towards diaminopimelate (DAP) epimerase was determined.
A short description of series [2]: Inhibition towards diaminopimelate (DAP) epimerase was determined and expressed as KI.
Series [3] concerns the target T1, Glutamate racemase (Lactobacillus fermentum, UniProt Q03469).
T1 sequence (Q03469 whole entry): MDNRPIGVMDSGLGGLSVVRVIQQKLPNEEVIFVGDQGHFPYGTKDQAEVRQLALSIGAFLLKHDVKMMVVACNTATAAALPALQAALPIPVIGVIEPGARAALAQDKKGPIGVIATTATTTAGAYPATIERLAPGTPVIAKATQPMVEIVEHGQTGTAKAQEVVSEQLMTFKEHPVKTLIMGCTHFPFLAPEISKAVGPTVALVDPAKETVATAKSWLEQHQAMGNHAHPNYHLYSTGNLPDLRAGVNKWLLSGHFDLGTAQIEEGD
The experiment in a line: Inhibition towards glutamate racemase from Lactobacillus fermenti was determined and expressed as KI. Details: species or system Limosilactobacillus fermentum.

Series [4] in a line: Ratio of kcat to that of KM was determined.
Series [5] addresses T2, Glutamate racemase (Lactobacillus fermentum) (UniProt Q03469).
T2 sequence (whole entry): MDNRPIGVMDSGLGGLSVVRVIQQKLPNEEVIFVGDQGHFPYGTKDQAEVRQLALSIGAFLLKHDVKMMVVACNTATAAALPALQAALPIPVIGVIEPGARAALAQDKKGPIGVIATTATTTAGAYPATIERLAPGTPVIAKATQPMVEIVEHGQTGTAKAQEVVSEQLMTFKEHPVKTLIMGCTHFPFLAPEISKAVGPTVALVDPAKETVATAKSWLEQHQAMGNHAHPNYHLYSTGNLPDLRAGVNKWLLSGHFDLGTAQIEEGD
The experiment in a line: Enzyme kinetic constant for Glutamate racemase and expressed as Kcat.

The target of series [6] is T1, Glutamate racemase. The experiment in a line: Inhibition towards glutamate racemase was determined and expressed as KI. Set-up: species or system Limosilactobacillus fermentum.
Substrate in series [7]: N[C@H](CCC(=O)O)C(=O)O
Conditions: Limosilactobacillus fermentum.

Substrate in series [8]: O=C(O)CCC(=O)C(=O)O
The experiment in a line: Enzyme kinetic constant for Glutamate racemase and expressed as Km.

Regarding `N[C@H](C(=O)O)[C@@H](F)CC[C@H](N)C(=O)O`, the IC50 (commonly the midpoint of a concentration-inhibition curve) in series [1] is 4 µM.

Take `NC(CCCC(NO)C(=O)O)C(=O)O` (centres undefined): the Ki – broadly, the dissociation constant of the complex between target and ligand, obtained from inhibition or displacement – in series [2] was determined as 5.6 µM. Molecule `N[C@@H](CCC(=O)O)C(=O)O` [GLUTAMIC ACID] registered a Ki in series [3] of 28 µM. In addition, the k cat/Km in series [4] was 30 M⁻¹ s⁻¹. For the molecule `N[C@H](C(=O)O)[C@H](F)CC[C@H](N)C(=O)O`, the IC50 in series [1] amounted to 10 µM. In series [5], `O=C(O)CCC(=O)C(=O)O` registered a k cat of 0.18 s⁻¹. For the same molecule, in series [4], the k cat/Km was 3200 M⁻¹ s⁻¹. For `N[C@@H](CC[C@@H](F)[C@@H](N)C(=O)O)C(=O)O`, the IC50 in series [1] worked out at 25 µM. As for `N[C@H](CCC(=O)O)C(=O)O` [D-GLUTAMATE], the Ki came out at 56 µM in series [3] and 190 µM in series [6]. Also, in series [4], the k cat/Km was 3700 M⁻¹ s⁻¹. Regarding `N[C@@H](CC[C@H](F)[C@@H](N)C(=O)O)C(=O)O`, half-maximal inhibition in series [1] (IC50) was put at 8 µM.

B1: Glutamate racemase (Lactobacillus fermentum), Q03469 (protein)
chain: MDNRPIGVMDSGLGGLSVVRVIQQKLPNEEVIFVGDQGHFPYGTKDQAEVRQLALSIGAFLLKHDVKMMVVACNTATAAALPALQAALPIPVIGVIEPGARAALAQDKKGPIGVIATTATTTAGAYPATIERLAPGTPVIAKATQPMVEIVEHGQTGTAKAQEVVSEQLMTFKEHPVKTLIMGCTHFPFLAPEISKAVGPTVALVDPAKETVATAKSWLEQHQAMGNHAHPNYHLYSTGNLPDLRAGVNKWLLSGHFDLGTAQIEEGD
Turning to B1, the Km – broadly, the substrate concentration at which the rate is half of its maximum – in series [7] was 300 µM; in series [8] it was 57 µM.

These data come from ChEMBL document CHEMBL1150481, “The inhibition of glutamate racemase by” (Bioorg Med Chem Lett, 1997).
